Each structure is given as a SMILES string.

One experiment addresses T1, FsnR (Stenotrophomonas maltophilia, UniProt B2FQU0).
T1 construct: gene Smlt2299; full length, recombinant from E. coli BL21(DE3), C-terminal His6 or GST tag (GST cleaved on column); Red NHS labelled for MST
Nature of the experiment: microscale thermophoresis (MST). The format is binding. The note with it: PBS buffer; labelled protein.

The target in another experiment is T2, RavS (Stenotrophomonas maltophilia, UniProt B2FQW5).
T2 construct: gene Smlt2324; recombinant from E. coli BL21(DE3), C-terminal His6 or GST tag (GST cleaved); phosphorylated His503; labelled for MST
Nature of the experiment: microscale thermophoresis (MST). The format is binding. The note with it: PBS buffer; 20 nM fluorescein-labeled RavS.

T1 sequence (B2FQU0 entry or part of it): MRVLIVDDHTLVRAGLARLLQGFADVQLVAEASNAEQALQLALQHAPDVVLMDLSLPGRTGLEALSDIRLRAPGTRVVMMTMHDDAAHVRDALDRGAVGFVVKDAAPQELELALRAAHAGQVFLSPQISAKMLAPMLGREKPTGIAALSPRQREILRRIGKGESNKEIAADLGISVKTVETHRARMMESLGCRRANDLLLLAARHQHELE
T2 sequence (B2FQW5 entry or part of it): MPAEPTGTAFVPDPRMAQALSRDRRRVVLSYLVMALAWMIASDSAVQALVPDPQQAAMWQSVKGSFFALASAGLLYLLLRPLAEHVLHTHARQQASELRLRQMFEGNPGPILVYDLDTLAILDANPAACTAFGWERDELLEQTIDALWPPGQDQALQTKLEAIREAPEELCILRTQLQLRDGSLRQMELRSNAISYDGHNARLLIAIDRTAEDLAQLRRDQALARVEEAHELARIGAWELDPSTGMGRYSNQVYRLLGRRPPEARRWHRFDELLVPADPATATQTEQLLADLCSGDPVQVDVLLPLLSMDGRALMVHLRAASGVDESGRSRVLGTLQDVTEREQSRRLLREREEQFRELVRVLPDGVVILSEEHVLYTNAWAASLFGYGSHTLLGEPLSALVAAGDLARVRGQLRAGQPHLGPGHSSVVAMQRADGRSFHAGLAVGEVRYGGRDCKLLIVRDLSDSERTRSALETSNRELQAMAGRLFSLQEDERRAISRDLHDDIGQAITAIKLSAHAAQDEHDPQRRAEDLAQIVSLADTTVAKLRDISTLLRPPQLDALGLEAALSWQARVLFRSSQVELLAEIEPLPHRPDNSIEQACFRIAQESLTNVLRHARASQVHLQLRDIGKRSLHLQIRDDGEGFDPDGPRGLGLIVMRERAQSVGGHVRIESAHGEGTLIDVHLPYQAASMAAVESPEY

On to `Nc1nc2c(ncn2[C@@H]2O[C@@H]3CO[P@](=O)(O)O[C@H]4[C@@H](O)[C@H](n5cnc6c(=O)[nH]c(N)nc65)O[C@@H]4CO[P@](=O)(O)O[C@H]3[C@H]2O)c(=O)[nH]1` [c-di-GMP], for which the Kd was found to be 3.43 ± 1.36 µM on FsnR and 1.48 ± 0.36 µM on RavS.

The record behind these values is paper PMC9600515, “Dual Regulatory Role Exerted by Cyclic Dimeric GMP To Control FsnR-Mediated Bacterial Swimming” (mBio, 2022).
